In patent US20220041606A1, “POSITIVE ALLOSTERIC MODULATORS OF THE MUSCARINIC ACETYLCHOLINE RECEPTOR M1” (Vanderbilt University, priority 2020, published 2022):

Experiments:
[1] = target: T1, human mAChR M1 (Homo sapiens, UniProt P11229); test: mAChR M1 cell-based functional assay (calcium mobilization), PAM activity: increase in the EC20 acetylcholine response; conditions: CHO-K1 cells expressing hM1; potentiation of EC20 acetylcholine response
T1 construct: host or cells: CHO-K1 cells (ATCC), stably transfected using Lipofectamine2000
T1 sequence (P11229 1-460): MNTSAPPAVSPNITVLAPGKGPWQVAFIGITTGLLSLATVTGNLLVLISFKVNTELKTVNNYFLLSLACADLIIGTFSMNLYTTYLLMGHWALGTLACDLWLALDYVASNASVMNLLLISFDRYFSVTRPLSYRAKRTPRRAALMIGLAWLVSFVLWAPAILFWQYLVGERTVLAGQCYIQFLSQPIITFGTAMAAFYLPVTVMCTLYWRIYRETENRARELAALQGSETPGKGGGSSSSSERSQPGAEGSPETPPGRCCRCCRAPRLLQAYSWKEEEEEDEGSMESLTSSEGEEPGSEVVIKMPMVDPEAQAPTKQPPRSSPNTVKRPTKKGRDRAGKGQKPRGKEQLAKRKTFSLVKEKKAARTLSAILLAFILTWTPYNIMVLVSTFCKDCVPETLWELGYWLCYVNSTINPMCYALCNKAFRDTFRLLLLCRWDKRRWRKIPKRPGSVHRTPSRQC
In short: (§1)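 CHO-K1 cells stably expressing hM1, loaded with Fluo-4 AM; calcium flux read on FDSS 6000. Compound (11-point, 1:3 CRC) added at 4 s, EC20 acetylcholine at 144 s, EC80 at 230 s; agonism from response to compound alone, PAM from increase in EC20 response; Emax relative to acetylcholine maximum, four-parameter fit.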

[2] = target: T1, human mAChR M1; test: mAChR M1 cell-based functional assay (calcium mobilization), agonist activity upon compound addition; conditions: CHO-K1 cells expressing hM1; for EC50: compound alone, before acetylcholine addition; for Emax: relative to the maximum for acetylcholine
In short: as §1

Row | SMILES | EC50 [1] [µM] | Emax [1] [%] | EC50 [2] [µM] | Emax [2] [%]
1 | Cn1ccc(-c2ccc(Cn3cc(C(=O)N[C@@H]4CC[C@H]4O)c4ncccc4c3=O)c(F)c2)n1 [Compound A4, 6-(2-fluoro-4-(1-methyl-1H-pyrazol-3-yl)benzyl)-N-((1R,2R)-2-hydroxycyclobutyl)-5-oxo-5,6-dihydro-1,6-naphthyridine-8-carboxamide] | 3.45 | 42 | > 10 | < 5
2 | Cc1cc(C)cc(-c2ccc(Cn3cc(C(=O)N[C@H]4CCOC[C@@H]4O)c4ncccc4c3=O)c(F)c2)c1 [Compound A30, 6-((3-fluoro-3′,5′-dimethyl-[1,1′-biphenyl]-4-yl)methyl)-N-((3R,4S)-3-hydroxytetrahydro-2H-pyran-4-yl)-5-oxo-5,6-dihydro-1,6-naphthyridine-8-carboxamide] | 4.61 | 47 | > 10 | < 5
3 | Cn1nccc1-c1cc(F)c(Cn2cc(C(=O)N[C@H]3CCCC[C@@H]3O)c3ncccc3c2=O)c(F)c1 [Compound A48, 6-(2,6-difluoro-4-(1-methyl-1H-pyrazol-5-yl)benzyl)-N-((1S,2S)-2-hydroxycyclohexyl)-5-oxo-5,6-dihydro-1,6-naphthyridine-8-carboxamide] | 0.66 | 38 | > 10 | < 5
4 | O=C(N[C@H]1CCCC[C@@H]1O)c1cn(Cc2ccc(-n3cccn3)cc2)c(=O)c2cccnc12 [Compound A13, 6-(4-(1H-pyrazol-1-yl)benzyl)-N-((1S,2S)-2-hydroxycyclohexyl)-5-oxo-5,6-dihydro-1,6-naphthyridine-8-carboxamide] | 1.13 | 71 | 8.95 | 21
5 | Cn1cc(-c2ccc(Cn3cc(C(=O)N[C@H]4CCCC[C@@H]4O)c4ncccc4c3=O)cc2)cn1 [Compound A86, N-((1S,2S)-2-hydroxycyclohexyl)-6-(4-(1-methyl-1H-pyrazol-4-yl)benzyl)-5-oxo-5,6-dihydro-1,6-naphthyridine-8-carboxamide] | 0.37 | 52 | > 10 | < 5
6 | Cn1cc(-c2ccc(Cn3cc(C(=O)N[C@H]4CCOC[C@@H]4O)c4nccnc4c3=O)c(F)c2)cn1 [Compound A77, 6-(2-fluoro-4-(1-methyl-1H-pyrazol-4-yl)benzyl)-N-((3R,4S)-3-hydroxytetrahydro-2H-pyran-4-yl)-5-oxo-5,6-dihydropyrido[3,4-b]pyrazine-8-carboxamide] | 4.21 | 72 | – | 18
7 | Cn1nccc1-c1cc(F)c(Cn2cc(C(=O)N[C@H]3CCOC[C@@H]3O)c3ncccc3c2=O)c(F)c1 [Compound A47, 6-(2,6-difluoro-4-(1-methyl-1H-pyrazol-5-yl)benzyl)-N-((3R,4S)-3-hydroxytetrahydro-2H-pyran-4-yl)-5-oxo-5,6-dihydro-1,6-naphthyridine-8-carboxamide] | 1.09 | 57 | > 10 | < 5
8 | Cc1cc(-c2ccc(Cn3cc(C(=O)N[C@H]4CCOC[C@@H]4O)c4ncccc4c3=O)c(F)c2)ccn1 [Compound A26, 6-(2-fluoro-4-(2-methylpyridin-4-yl)benzyl)-N-((3R,4S)-3-hydroxytetrahydro-2H-pyran-4-yl)-5-oxo-5,6-dihydro-1,6-naphthyridine-8-carboxamide] | 0.49 | 75 | – | 10
9 | Cc1cccc(-c2ccc(Cn3cc(C(=O)N[C@H]4CCOC[C@@H]4O)c4ncccc4c3=O)c(F)c2)c1 [Compound A29, 6-((3-fluoro-3′-methyl-[1,1′-biphenyl]-4-yl)methyl)-N-((3R,4S)-3-hydroxytetrahydro-2H-pyran-4-yl)-5-oxo-5,6-dihydro-1,6-naphthyridine-8-carboxamide] | 4.84 | 61 | > 10 | < 5
10 | Cn1cc(-c2ccc(Cn3cc(C(=O)N[C@H]4CCCCC[C@@H]4O)c4nccnc4c3=O)c(F)c2)cn1 [Compound A78, 6-(2-fluoro-4-(1-methyl-1H-pyrazol-4-yl)benzyl)-N-((1S,2S)-2-hydroxycycloheptyl)-5-oxo-5,6-dihydropyrido[3,4-b]pyrazine-8-carboxamide] | 2.98 | 67 | – | 5
11 | O=C(N[C@H]1CCCCC[C@@H]1O)c1cn(Cc2ccc(-n3cccn3)cc2)c(=O)c2cccnc12 [Compound A25, 6-(4-(1H-pyrazol-1-yl)benzyl)-N-((1S,2S)-2-hydroxycycloheptyl)-5-oxo-5,6-dihydro-1,6-naphthyridine-8-carboxamide] | 0.97 | 68 | > 10 | < 5

Now from value to compound:

Row | EC50 [1] [µM] | Emax [1] [%] | EC50 [2] [µM] | Emax [2] [%] | SMILES
12 | 0.24 | 73 | – | 48 | Cn1cc(-c2ccc(Cn3cc(C(=O)N[C@H]4CCC[C@@H]4O)c4nccn4c3=O)c(F)c2)cn1 [Compound B7, 6-(2-fluoro-4-(1-methyl-1H-pyrazol-4-yl)benzyl)-N-((1S,2S)-2-hydroxycyclopentyl)-5-oxo-5,6-dihydroimidazo[1,2-c]pyrimidine-8-carboxamide]
13 | 0.046 | 68 | 0.15 | 62 | Cn1cc(-c2ccc(Cn3cc(C(=O)N[C@H]4CCOC[C@@H]4O)c4nccn4c3=O)c(F)c2)cn1 [Compound B5, 6-(2-fluoro-4-(1-methyl-1H-pyrazol-4-yl)benzyl)-N-((3R,4S)-3-hydroxytetrahydro-2H-pyran-4-yl)-5-oxo-5,6-dihydroimidazo[1,2-c]pyrimidine-8-carboxamide]
14 | 4.12 | 64 | > 10 | < 5 | Cn1cc2c(-c3cc(F)c(Cn4cc(C(=O)NC5CCOCC5)c5occc5c4=O)c(F)c3)cccc2n1 [Compound D23, 5-(2,6-difluoro-4-(2-methyl-2H-indazol-4-yl)benzyl)-4-oxo-N-(tetrahydro-2H-pyran-4-yl)-4,5-dihydrofuro[3,2-c]pyridine-7-carboxamide]
15 | 1.27 | 59 | > 10 | 19 | Cn1cc2c(-c3cc(F)c(Cn4cc(C(=O)N[C@H]5CC[C@@H]5O)c5nccn5c4=O)c(F)c3)cccc2n1 [Compound B22, 6-(2,6-difluoro-4-(2-methyl-2H-indazol-4-yl)benzyl)-N-((1S,2S)-2-hydroxycyclobutyl)-5-oxo-5,6-dihydroimidazo[1,2-c]pyrimidine-8-carboxamide]
16 | > 10 | 34 | > 10 | < 5 | O=C(N[C@H]1CCC[C@@H]1O)c1cn(Cc2ccc(-n3cccn3)cc2)c(=O)c2ccoc12 [Compound D4, 5-(4-(1H-pyrazol-1-yl)benzyl)-N-((1S,2S)-2-hydroxycyclopentyl)-4-oxo-4,5-dihydrofuro[3,2-c]pyridine-7-carboxamide]
17 | > 10 | 37 | > 10 | < 5 | Cn1cc(-c2ccc(Cn3cc(C(=O)N[C@H]4CCOC[C@@H]4O)c4sccc4c3=O)c(F)c2)cn1 [Compound D29, 5-(2-fluoro-4-(1-methyl-1H-pyrazol-4-yl)benzyl)-N-((3R,4S)-3-hydroxytetrahydro-2H-pyran-4-yl)-4-oxo-4,5-dihydrothieno[3,2-c]pyridine-7-carboxamide]
18 | > 10 | 29 | > 10 | < 5 | Cn1cc(-c2ccc(Cn3cc(C(=O)N[C@@H]4CC[C@H]4O)c4occc4c3=O)c(F)c2)cn1 (stereo in doubt) [Compound D15, 5-(2-fluoro-4-(1-methyl-1H-pyrazol-4-yl)benzyl)-N-((1R,2R)-2-hydroxycyclobutyl)-4-oxo-4,5-dihydrofuro[3,2-c]pyridine-7-carboxamide]
19 | 0.096 | 68 | 3.7 | 60 | Cn1ccc(-c2ccc(Cn3cc(C(=O)N[C@H]4CCCC[C@@H]4O)c4nccn4c3=O)c(F)c2)n1 [Compound B2, 6-(2-fluoro-4-(1-methyl-1H-pyrazol-3-yl)benzyl)-N-((1S,2S)-2-hydroxycyclohexyl)-5-oxo-5,6-dihydroimidazo[1,2-c]pyrimidine-8-carboxamide]
20 | 0.17 | 43 | > 10 | < 5 | Cn1cnc2c(C(=O)N[C@H]3CCCC[C@@H]3O)cn(Cc3ccc(-n4cccn4)cc3)c(=O)c21 [Compound C6, 5-(4-(1H-pyrazol-1-yl)benzyl)-N-((1S,2S)-2-hydroxycyclohexyl)-3-methyl-4-oxo-4,5-dihydro-3H-imidazo[4,5-c]pyridine-7-carboxamide]
21 | 0.38 | 67 | 6.02 | 55 | O=C(N[C@H]1CCOC[C@@H]1O)c1cn(Cc2ccc(-n3cccn3)cc2)c(=O)n2ccnc12 [Compound B12, 6-(4-(1H-Pyrazol-1-yl)benzyl)-N-((3R,4S)-3-hydroxytetrahydro-2H-pyran-4-yl)-5-oxo-5,6-dihydroimidazo[1,2-c]pyrimidine-8-carboxamide]
